# In patent publication US9955691B2, “Macrocyclic picolinamides as fungicides” (DOW AGROSCIENCES LLC, priority 2014, dated 2018):
# Like-named read-outs stand apart in the source and are kept apart here.
# Experiments:
# [1] = test system: Mycosphaerella graminicola; Anamorph: Septoria tritici; assay: Fungicidal activity: Leaf Blotch of Wheat (SEPTTR); assay type: in vivo; details: Zymoseptoria tritici; for pest or weed control at 121.5 g/ha: Low Volume (121.5 g/H)
# Outline: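 Compounds were dissolved in acetone, diluted with nine volumes of water containing 110 ppm Triton X-100, and sprayed to run-off on first-leaf Yuma wheat seedlings inoculated with Septoria tritici spores before or after treatment. Plants were held in a dew chamber, then a 20° C. greenhouse. Percent control was derived from disease severity relative to untreated plants.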
# Puccinia triticina = assay: Fungicidal activity: Wheat Brown Rust (PUCCRT); assay type: in vivo; details: for pest or weed control at 100 µg/mL: High Volume (100 ppm); for pest or weed control at 121.5 g/ha: Low Volume (121.5 g/H)
# Outline: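 Wheat seedlings (Yuma, first leaf) sprayed to run-off with compound in acetone/water with Triton X-100, inoculated with Puccinia triticina before or after treatment. Held overnight in dark dew at 22° C, then greenhouse at 24° C; percent disease control from severity versus untreated plants.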
# [2] = 24 h, High Volume (100 ppm), 1 Day Protectant, wheat leaf blotch, read-out: SEPTTR 1 DP disease control
# [3] = 72 h, High Volume (100 ppm), 3 Day Curative, wheat leaf blotch, read-out: SEPTTR 3 DC disease control
# [4] = 24 h, 1 Day Protectant, read-out: PUCCRT 1 DP disease control
# [5] = 72 h, 3 Day Curative, read-out: PUCCRT 3 DC disease control
# [6] = 24 h, 1 Day Protectant, wheat leaf blotch, read-out: SEPTTR 1 DP disease control
# [7] = 72 h, 3 Day Curative, wheat leaf blotch, read-out: SEPTTR 3 DC disease control
SMILES,melting point [°C],"pest or weed control at 100 µg/mL [1, 2] [%]","pest or weed control at 100 µg/mL [1, 3] [%]",pest or weed control at 100 µg/mL (Puccinia triticina; [4]) [%],pest or weed control at 100 µg/mL (Puccinia triticina; [5]) [%],"pest or weed control at 121.5 g/ha [1, 6] [%]","pest or weed control at 121.5 g/ha [1, 7] [%]",pest or weed control at 121.5 g/ha (Puccinia triticina; [4]) [%],pest or weed control at 121.5 g/ha (Puccinia triticina; [5]) [%],"pest or weed control at 100 µg/mL ([1]; 24 h, read-out: SEPTTR 1 DP disease control) [%]","pest or weed control at 100 µg/mL ([1]; 72 h, read-out: SEPTTR 3 DC disease control) [%]"
COc1ccnc(C(=O)N[C@H]2COC[C@H](Cc3ccccc3)[C@@H](COc3ccccc3)[C@H](C)OC2=O)c1O [compound 151],68 to 73,> 70,> 70,> 70,< 70,,,,,,
CCC[C@H]1COC[C@H](NC(=O)c2nccc(OC)c2OCOC(C)=O)C(=O)O[C@@H](C)[C@@H]1Cc1ccc(F)cc1 [compound 108],38 to 43,,,,,> 70,> 70,> 70,> 70,,
COc1ccnc(C(=O)N[C@H]2COC[C@H](CC3CC3)[C@@H](Cc3ccccc3)[C@H](C)OC2=O)c1OCOC(=O)C(C)C [compound 70],37 to 41,,,,,> 70,> 70,> 70,> 70,,
COc1ccnc(C(=O)N[C@H]2COC[C@H](CCC(C)C)[C@@H](C3CCCC3)[C@H](C)OC2=O)c1OC(C)=O [compound 91],57 to 62,,,,,> 70,> 70,> 70,< 70,,
COc1ccnc(C(=O)N[C@H]2COC[C@H](CCCc3ccccc3)[C@@H](CCc3ccccc3)[C@H](C)OC2=O)c1O [compound 139],48 to 52,< 70,< 70,> 70,< 70,,,,,,
"COc1ccnc(C(=O)N[C@H]2COC[C@H](CCC(C)C)[C@@H](C3CCCC3)[C@H](C)OC2=O)c1OC(=O)C(C)C [compound 92, 2-(((3S,7R,8R,9S)-8-cyclopentyl-7-isopentyl-9-methyl-2-oxo-1,5-dioxonan-3-yl)carbamoyl)-4-methoxypyridin-3-yl isobutyrate]",47 to 51,,,,,> 70,> 70,> 70,> 70,,
COc1cccc(C[C@H]2COC[C@H](NC(=O)c3nccc(OC)c3OCOC(C)=O)C(=O)O[C@@H](C)[C@@H]2Cc2cccc(OC)c2)c1 [compound 17],51 to 55,,,,,> 70,> 70,> 70,< 70,,
"COCCC(=O)Oc1c(OC)ccnc1C(=O)N[C@H]1COC[C@H](Cc2ccc(Cl)cc2)[C@@H](C2CCCC2)[C@H](C)OC1=O [compound 106, 2-(((3S,7R,8R,9S)-7-(4-chlorobenzyl)-8-cyclopentyl-9-methyl-2-oxo-1,5-dioxonan-3-yl)carbamoyl)-4-methoxypyridin-3-yl 3-methoxypropanoate]",55 to 60,,,,,> 70,> 70,> 70,> 70,,
"COc1ccnc(C(=O)N[C@H]2COC[C@H](Cc3ccccc3)[C@@H](Cc3ccccc3)[C@H](C)OC2=O)c1O [Cmpd. 112, N-((3S,7R,8R,9S)-7,8-dibenzyl-9-methyl-2-oxo-1,5-dioxonan-3-yl)-3-hydroxy-4-methoxypicolinamide]",69 to 72,,,< 70,< 70,,,,,< 70,< 70
COc1ccnc(C(=O)N[C@H]2COC[C@H](CCCc3ccccc3)[C@@H](CCc3ccccc3)[C@H](C)OC2=O)c1OCOC(C)=O [compound 67],37 to 40,,,,,< 70,< 70,< 70,< 70,,
